Test results as given in patent US20030170642A1, “Identification of cellular targets for biologically active molecules” (IRM, LLC, priority 2001, published 2003).
Where two headings read alike, the source gives them in different places. Blank lines part the entries; values can stand above or below the compound they belong to.

Tests used:
NF-κB [1] = test: In cellulo competition: over-expression of TNF/NF-κB pathway cDNAs in HEK293 NF-κB reporter cells; conditions: for Effect of over-expressed IKK-beta or NF-κB p65 on the compound's inhibition of the NF-κB reporter: transient over-expression, 1, 2 or 5 mM
Protocol: (§2) HEK293T NF-κB reporter cells were seeded at 7000 cells/well in 384-well plates in triplicate. Eighteen hours later, cells were treated with TNF-alpha (10 ng/mL) in the absence of or presence of 1, 2 or 5 mM sodium salicylate. Cells in other wells were transfected with mammalian expression vectors encoding wild-type human IKK-beta (50 ng) or NF-κB p65 (10 ng) by calcium phosphate. Eight hours post transfection, fresh medium was added with 1, 2 or 5 mM sodium salicylate and incubated for an additional 16 hours. At 24 hours post TNF addition or post transfection, cells were lysed and incubated with Bright-Glo (Promega) and Relative Light Units (RLUs) were determined using the LJL Acquest luminometer.
Screening and Small Complementation: HEK293 NF-κB reporter cells were plated at 7000 cells/well in 384-well Greiner clear bottom plates using a Titertek Multidrop. Cells were incubated for 8 hours before transfection of the cDNA libraries. […] Thirty minutes compound treatment, The Hydra was used again to mix two μL DNA with 8 ul of a premixed solution 61 μl 2m CaC12, 440 μH20 distributed into a 384-well intermediate plate. Then, 10 ul of a 2× Hepes Buffered Saline solution (HBS, pH 7.0) was mixed with the DNA and pipetted automatically for 5 seconds followed by 10 μL addition of the transfection solution to HEK293 NF-κB reporter cells. After transfected plates of cells were incubated at 37° C. for 16 hours, Bright-Glo was added to each well using a twelve-head multi-channel pipettor, incubated for five minutes then read on the LJL Acquest in luminescence mode. Controls used in this experiment were limited to p65, IKK-beta, NIK and IKK-alpha. Additionally, retroviral vectors encoding firefly luciferase alone were plated in 384-wells and transfected into wild-type HEK293 cells to determine transfection efficiency and CVs.
(§3) HEK293 NF-κB reporter cells were plated in 96-well plates at 28,000 cells/well in D'MEM media containing 10% FBS, pen-strep antibiotics and 1 mM glutamine. […] After 24 hours, samples were treated with Bright-Glo and analyzed using the LJL Acquest luminometer.

NF-κB [2] = test: HEK293 NF-κB-luciferase reporter gene assay, TNF-alpha stimulation
Protocol: Day 7: HEK293 and Jurkat NF-κB reporter cells were plated and treated with a dose-response of human TNF-alpha for 2 to 24 hours, lysed and treated with Bright-Glo luciferase reagent (Promega) and luminescence measured with the LJL Acquest luminometer.
as §2
Stimulus and detection addition: After 30 minute incubation with compounds, a solution of TNF-alpha (Sigma) diluted to 60 ng/ml and transferred to cells using the Cartesian synQUAD such that 1 μL of stimulus was added per well to a final dilution of approximately 10 ng/ml final. […] Cells were incubated with the Alamar Blue for three hours then read on the LJL Acquest in fluorescence mode at 100,000 us/well. […] Precisely five minutes after addition of Bright-Glo, the cell plate was read in luminescence mode in the LJL Acquest at 100,000 us per well. Wells treated with compounds in which fluorescent signals were >90% of the mean across the plate, and below 50% of the mean across the plate for luminescence were identified and compounds hit picked for future studies. […] IC50 values were also determined in the HEK293 NF-κB reporter gene assay in the same manner.
as §3

NF-κB [3] = conditions: Jurkat reporter cells, stable retroviral over-expression, 1, 2 or 5 mM
Protocol: (§1) Alternatively, Jurkat NF-κB reporter cells were seeded at 30,000 cells per/ml in 384-well microtiter plates. Recombinant retroviruses encoding wild-type IKK-beta or NF-κB p65 were generated and used to transduce Jurkat reporter cells. Untransduced cells were treated with 1, 2 or 5 mM salicylate for 30 minutes prior to stimulation with TNF-alpha (10 ng/ml). For transduced cells, 4 hours post retroviral incubation, cells were treated with either 0, 1, 2 or 5 mM salicylic acid.

NF-κB [4] = test: Jurkat NF-κB-luciferase reporter cell assay, TNF-alpha stimulation; type: cell-based; conditions: Jurkat reporter cells
Protocol: as §1, with “ng/ml).” for “ng/ml). For transduced cells, 4 hours post retroviral incubation, cells were treated with either 0, 1, 2 or 5 mM salicylic acid.”
Cell Plating: Jurkat NF-κB reporter cells were seeded at 5 μL per well in Greiner 1536-well micro-plates using the Cartesian synQUAD. Settings for the 24,000 step motor were such that a 100 μL syringe would provide a volume per step of 4.2 nL; timing was controlled by a master dispenser solenoids and stepper motors which moved the stage and controlled the syringe pumps. The result was extremely rapid “on-the-fly” dispensing, similar to an inkjet printer. […]
Compound addition: Four Falcon 384-well plates containing compounds (Aldrich) dissolved in dimethylsulfoxide (DMSO) to a final concentration of 1 mM (excepting the last two columns which were just DMSO) were transferred to the Jurkat reporter cells. […] Coefficients of variation (CVs) before and after compound addition was determined by transferring liquid from a FITC solution bath to 384 well plates and read on the LJL Acquest in fluorescence modality.

Compound: CC(=O)c1c(O)c(C)c(O)c(Cc2c(O)c3c(c(C(=O)/C=C/c4ccccc4)c2O)OC(C)(C)C=C3)c1O [Rottlerin]
Block of NF-κB reporter signals induced by TNF or over-expressed TNFR, TRAF2, NIK, IKK-beta, IKK-alpha, p65 (NF-κB [1]; compound at its IC50 concentration, 24 hours): able to block signals induced by TNF, TNFR, but not TRAF2
IC50 (NF-κB [2]; Homo sapiens, HEK293, read-out: IC50 concentration, NF-κB reporter gene assay): 50 nM

Block of TNF induction of NF-κB reporter (NF-κB [2]; HEK293 reporter cells, TNF-alpha 10 ng/mL, 1, 2 or 5 mM sodium salicylate): block TNF induction of NF-κB
Compound: O=C(O)c1ccccc1O [Salicylate, salicylic acid]
Effect of over-expressed IKK-beta or NF-κB p65 on the compound's inhibition of the NF-κB reporter (NF-κB [1]): over-expression of cDNA encoding human IKK-beta diminished the inhibitory effects
Effect of over-expressed IKK-beta or NF-κB p65 on the compound's inhibition of the NF-κB reporter (NF-κB [1]; listed as salicyclic acid): over-expression of IKK-beta, but not NF-κB p65, could titrate out the effect
Effect of over-expressed IKK-beta or NF-κB p65 on the compound's inhibition of the NF-κB reporter (NF-κB [3]): over-expression of cDNA encoding human IKK-beta diminished the inhibitory effects
Effect of over-expressed IKK-beta or NF-κB p65 on the compound's inhibition of the NF-κB reporter (NF-κB [3]; listed as salicyclic acid): over-expression of IKK-beta, but not NF-κB p65, could titrate out the effect
Block of TNF induction of NF-κB reporter (NF-κB [4]; TNF-alpha 10 ng/ml, 1, 2 or 5 mM salicylate): block TNF induction of NF-κB

Induction of NF-κB reporter luciferase (NF-κB [2]; HEK293 reporter cells, dose-response, 2 to 24 hours): inducible
Compound: TNF-alpha
Induction of NF-κB reporter luciferase (NF-κB [4]; dose-response, 2 to 24 hours): inducible
